Consider 3 compounds from patent US20080267948A1, “Croos-B Structure Binding Compounds” (priority 2005, published 2008).

“Also recorded” adds a separate entry of the source. Like-named read-outs stand apart in the source and are kept apart here.

Assay [1] addresses T1, Hb-AGE (glucose-6-phosphate modified human haemoglobin) (Homo sapiens, UniProt P68871+P69905).
T1 construct: purchased Sigma-Aldrich H7379
Description: ELISA binding of tPA to immobilized Hb-AGE, compounds co-incubated with tPA. As to conditions: compound mixed with tPA, control without compound = 100. How it is done: The small compound library is depicted in Tables 4-5. […] Binding experiments were performed in single wells per compound, in a duplicate experiment. Binding data obtained with this duplicate experiment was averaged.
• 1. […] Coat buffer in control wells. • 2. wash three times with wash buffer • 3. Block all wells with 300 μl 0.5*recommended concentration Roche blocking reagent for 30 minutes at room temperature, with agitation • 4. wash twice • 5. […] Incubate for 30 minutes at room temperature, with agitation • 7. wash five times with TBS/0.1% Tween20 • 8. […] Incubate for 30 minutes at room temperature, with agitation • 10. wash five times with TBS/0.1% Tween20 • 11. Fill wells with 3000× diluted horse raddish peroxidase-labeled polyclonal rabbit anti-mouse antibody (RAMPO, DAKOCytomation) • 12. Incubate for 20 minutes at room temperature, with agitation • 13. Wash five times with TBS/0.1% Tween20 • 14. Wash twice with PBS • 15. Stain with 100 μl TMB, stop with 50 μl 10% H2SO4 • 16. Read absorbance at 450 nm
For orientation: ELISA stands for enzyme-linked immunosorbent assay.

Assay [2] has as its system misfolded proteins (Hb-AGE, Aβ). Description: Binding of misfolded proteins from solution to immobilized small compounds (overall). As to conditions: compounds coated on ELISA plates, Hb-AGE or Aβ in solution. How it is done: (§1) To test the ability of the twelve selected compounds (see Table 7) to bind to misfolded proteins, the compounds were immobilized at 10/100/1000 μg/ml in the wells of 96-wells Greiner Microlon high binding plates, Nunc amino Immobilizer plates and Nunc Maxisorp plates. Compounds were coated in 100 mM NaHCO3 pH 9.6, 50 μl/well, 1 h at room temperature with agitation. As a control, wells were coated with buffer only. After blocking of the plates, wells were overlayed with solutions of 0.1/1/10 μg/ml Hb-AGE or 10/100 μg/ml Aβ, in binding buffer (PBS/0.1% Tween20). After washing, binding of Hb-AGE was assessed by overlaying wells with 1 μg/ml hybridoma antibody 4B5, which binds to glycations(^2), followed by RAMPO. Binding of Aβ was visualized using 500× diluted anti-Aβ antibodies (mouse antibody beta-amyloid Clone 6F/3D #M0872, lot 00003503, DAKOCytomation; β-amyloid (H-43) SC-9129, 200 μg/ml rabbit polyclonal IgG, Santa Cruz Biotechnology) and RAMPO/SWARPO in a 1:1 ratio. Finally, wells were overlayed with OPD/H2O2 solution, and H2SO4, before absorbance readings at 490 nm.

The conditions of assay [3]: information found on the www, search completed Spring 2006, cited from earlier work.
The target in assay [4] is T2, Aβ (Homo sapiens, UniProt P05067, E693Q).
T2 construct: Lyophilized human amyloid-β(1-40) with E22Q mutation ‘Dutch type’; purchased Peptide facility, Dutch Cancer Institute, Amsterdam; host or cells: synthetic peptide
Description: Binding of Aβ from solution to immobilized small compounds. As to conditions: Aβ 100 μg/ml. Here is the method:
as §1, with “the compounds were immobilized at 10/100/1000 μg/ml in the wells of 96-wells” left out

T1 sequence (P69905 2-142 limits assumed): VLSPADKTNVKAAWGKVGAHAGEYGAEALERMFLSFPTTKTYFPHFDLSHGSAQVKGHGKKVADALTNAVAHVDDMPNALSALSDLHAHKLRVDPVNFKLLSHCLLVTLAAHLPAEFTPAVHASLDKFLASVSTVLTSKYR
T1 sequence (P68871 2-147 limits assumed): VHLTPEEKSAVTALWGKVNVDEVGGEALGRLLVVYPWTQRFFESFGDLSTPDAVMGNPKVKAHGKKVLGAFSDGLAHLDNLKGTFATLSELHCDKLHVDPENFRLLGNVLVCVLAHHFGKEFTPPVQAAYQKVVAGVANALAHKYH

For the compound `COc1cc2c(cc1OC)-c1c(O)c(OC)cc3c1[C@H](C2)N(C)CC3` [compound 201, Thaliporphine, thalicmidine], the “% tPA binding to Hb-AGE (co-incubation)” value in assay [1] amounted to 30%. In assay [2], the “capture of misfolded protein from solution by immobilized compound” value (from here on “capture of misfolded protein”) was “Capture of misfolded protein from solution”. In addition, the “Use or activity in vitro/in vivo” value in assay [3] (thalicmidine) was “increased survival rate of LPS-treated mice; also recorded: suppression of TNFα, NO. and O^2− production; also recorded: stimulated splenocyte proliferation induced by LPS; also recorded: potent vasoconstrictor”.
With `COc1cc2c(cc1O)C[C@H]1c3c(cc(OC)c(O)c3-2)CCN1C` [compound 202, Isoboldine], the “% tPA binding to Hb-AGE (co-incubation)” value in assay [1] was determined as 250%. Moreover, the “capture of misfolded protein” value in assay [2] is recorded as “Capture of misfolded protein from solution”. Besides, the “Signal (a.u.)” value in assay [4] (Nunc Maxisorp, coat 100 μg/ml) is recorded as 0.11 a.u; in assay [4] (Nunc amino Immobilizer, coat 1 μg/ml) it was 0.08 a.u. In assay [3], the “Use or activity in vitro/in vivo” value was “potency to suppress LPS-induced proliferation in vitro; also recorded: potent antiplasmodial activity”.
For `O=c1oc2c(O)c(O)cc3c(=O)oc4c(O)c(O)cc1c4c23` [compound 117, Ellagic acid hydrate], in assay [2], the “capture of misfolded protein” value is reported as “Capture of misfolded protein from solution”. Further, in assay [4] (Nunc Maxisorp, coat 100 μg/ml), the “Signal (a.u.)” value amounted to 0.054 a.u.
